What was measured:
Format in all cases: in vivo
[1] = system: larvae of the diamondback moth (Plutella xylostella); test: Plutella xylostella spray test; details: mortality, cabbage leaves sprayed, 0.05 ppm
Description: (§1) For all examples efficiencies of the compositions comprising at least one BCA and at least one specific insecticide has been determined by the “Colby-formula”: The expected efficacy of a given combination of two compounds is calculated as follows (see Colby, S. R., “Calculating Synergistic and antagonistic Responses of Herbicide Combinations”, Weeds 15, pp. 20-22, 1967):
(§2) • X is the efficacy expressed in % mortality of the untreated control for test compound A at a concentration of m ppm respectively m g/ha, • Y is the efficacy expressed in % mortality of the untreated control for test compound B at a concentration of n ppm respectively n g/ha, • E is the efficacy expressed in % mortality of the untreated control using the mixture of A and B at m and n ppm respectively m and n g/ha, then
(§3) If the observed insecticidal efficacy of the combination is higher than the one calculated as “E”, then the combination of the two compounds is more than additive, i.e., there is a synergistic effect.
(§4) To produce a suitable preparation of active compound, 1 part by weight of active compound is mixed with the stated amount of solvent and emulsifier, and the concentrate is diluted with emulsifier-containing water to the desired concentration. […]
After the specified period of time, the mortality in % is determined. […] The mortality values determined thus are recalculated using the Colby-formula (see above).

[2] = system: mustard beetle larvae (Phaedon cochleariae); test: Phaedon cochleariae spray test; details: mortality, Chinese cabbage leaf-disks sprayed
Description: as §1, §2, §3
(§5) To produce a suitable preparation of active compound, 1 part by weight of active compound is mixed with the stated amount of solvent and emulsifier, and the concentrate is diluted with emulsifier-containing water to the desired concentration. To produce a suitable preparation of a spore suspension the spores are diluted with emulsifier-containing water to the desired concentration.
Chinese cabbage (Brassica pekinensis) leaf-disks are sprayed with a preparation of the active ingredient of the desired concentration. Once dry, the leaf disks are infested with mustard beetle larvae (Phaedon cochleariae).
After the specified period of time, mortality in % is determined. 100% means all beetle larvae have been killed and 0% means none of the beetle larvae have been killed. The mortality values determined thus are recalculated using the Colby-formula (see above).

[3] = system: green peach aphid (Myzus persicae); test: Myzus persicae spray test (MYZUPE); details: mortality, Chinese cabbage leaf-disks sprayed
Description: as §1, §2, §3, §5
Chinese cabbage (Brassica pekinensis) leaf-disks infected with all instars of the green peach aphid (Myzus persicae), are sprayed with a preparation of the active ingredient of the desired concentration.
After the specified period of time, mortality in % is determined. 100% means all aphids have been killed; 0% means none of the aphids have been killed. The mortality values determined thus are recalculated using the Colby-formula (see above).

[4] = system: two spotted spidermite (Tetranychus urticae); test: Tetranychus urticae spray test, OP-resistant; details: mortality, French beans sprayed, 20 g ai/ha
Description: as §1, §2, §3, §4
(§6) After the specified period of time, mortality in % is determined. […] The mortality values determined thus are recalculated using the Colby-formula (see above).

[5] = system: caterpillars of the beet army worm (Spodoptera exigua); test: Spodoptera exigua spray test; details: mortality, cotton leaves sprayed, 0.1 ppm
Description: as §1, §2, §3, §4, §6

[6] = system: fall armyworm larvae (Spodoptera frugiperda); test: Spodoptera frugiperda spray test; details: mortality, maize leaf sections sprayed, 0.8 g ai/ha
Description: as §1, §2, §3
To produce a suitable preparation of the active compound, 1 part by weight of active compound is mixed with the stated amount of solvent and emulsifier, and the concentrate is diluted with emulsifier-containing water to the desired concentration. […]
as §6

Row | SMILES | Efficacy in % after 3d [1] [%] | Efficacy in % after 6d ([2]; 0.16 g ai/ha) [%] | Efficacy in % after 6d ([2]; 0.8 g ai/ha) [%] | Efficacy in % after 6d ([3]; 4 g/ha) [%] | Efficacy in % after 6d [4] [%] | Efficacy in % after 6d ([3]; 0.16 g/ha) [%] | Efficacy in % after 3d [5] [%] | Efficacy in % after 2d ([6]; 2 d) [%] | Efficacy in % after 6d ([6]; 6 d) [%] | Efficacy in % after 2d ([2]; 100 g ai/ha, 2 d) [%] | Efficacy in % after 6d ([3]; 100 g/ha) [%]
1 | CNC(=O)c1cc(Cl)cc(C)c1NC(=O)c1cc(Br)nn1-c1ncccc1Cl [Chlorantraniliprole (I231), Chlorantraniliprole] | 30 | 0 | 0 | 0 | – | – | – | – | – | – | –
2 | CNC(=O)c1cc(C#N)cc(C)c1NC(=O)c1cc(Br)nn1-c1ncccc1Cl [Cyantraniliprole (I232), Cyantraniliprole] | – | – | 33 | – | 0 | 0 | – | – | – | – | –
3 | Cc1cc(C(F)(C(F)(F)F)C(F)(F)F)ccc1NC(=O)c1cccc(I)c1C(=O)NC(C)(C)CS(C)(=O)=O [Flubendiamide (I233), Flubendiamide] | – | – | – | – | – | – | 30 | 0 | 0 | 0 | 0
